Reference: article PMC10615877 (Chemistry (Weinheim an der Bergstrasse, Germany), 2023)
Where two headings read alike, the source gives them in different places.

How the values were obtained:
[1] = system: thioredoxin reductase (TrxR); settings: for inhibition: 100 µM
MDA-MB-468 cell line = settings: TNBC MDA-MB-468 cell line; cited from earlier work
Caki-1 = assay: Presto Blue cell viability assay, Caki-1; assay type: cell-based, human; settings: read-out: IC50 Caki-1 (renal), 72 hours incubation
IMR90 = assay: Presto Blue cell viability assay, non-cancerous lung fibroblasts IMR90; assay type: cell-based, human; settings: read-out: IC50 IMR90 (lung fibroblasts), 72 hours incubation
T24 = assay: Presto Blue cell viability assay, T24; assay type: cell-based, human; settings: read-out: IC50 T24 (bladder), 72 hours incubation
SKOV-3 = assay: Presto Blue cell viability assay, SKOV-3; assay type: cell-based, human; settings: read-out: IC50 SKOV-3 (ovarian), 72 hours incubation
MDA-MB-231 = assay: Presto Blue cell viability assay, MDA-MB-231; assay type: cell-based, human; settings: read-out: IC50 MDA-MB-231 (breast), 72 hours incubation
A549 = assay: Presto Blue cell viability assay, A549; assay type: cell-based, human; settings: read-out: IC50 A549 (lung), 72 hours incubation
plasmid pBR322 DNA = assay: Electrophoresis mobility shift assay with plasmid DNA; settings: no reducing agent, metal/DNAbp 0.2-1.0, 20 h, 37 °C
A2780 = assay: Presto Blue cell viability assay, A2780; assay type: cell-based, human; settings: read-out: IC50 A2780 (ovarian), 72 hours incubation
MDA-MB-231 cells [2] = settings: MDA-MB-231 TNBC cell line, oxaliplatin treatment alone; cited from earlier work
[3] = system: human umbilical vein endothelial cells (HUVEC); assay: Endothelial tube formation assay; assay type: cell-based; settings: IC10 concentration, 16 h
MDA-MB-231 cells [4] = assay: Annexin V / propidium iodide apoptosis assay by flow cytometry; assay type: cell-based, human; settings: 72 h incubation with IC50, MDA-MB-231
MDA-MB-231 cell line = assay type: cell-based, human; settings: IC20 concentration, 24 h
MDA-MB-157 cells [5] = assay: PrestoBlue cell viability, MDA-MB-157 2D monolayer; assay type: cell-based; settings: read-out: IC50 2D MDA-MB-157; 72 hours incubation, Presto Blue
MDA-MB-157 cells [6] = settings: read-out: IC50 2D MDA-MB-157; cited from earlier work

| Structure (SMILES) | inhibition of TrxR activity ([1]; 1 μM of metal compound, 72 h, MDA-MB-231 cells) | inhibition [1] | apoptosis (MDA-MB-468 cell line) | IC50 (Caki-1) | IC50 (IMR90) | IC50 (T24) | IC50 (SKOV-3) | IC50 (MDA-MB-231) | IC50 (A549) | plasmid pBR322 band mobility (metal-DNA binding) (plasmid pBR322 DNA) | IC50 (A2780) | increase in apoptosis (MDA-MB-231 cells [2]) | disruption of tube length (TL) [3] | disruption of tube nodes (TN) [3] | increase of early apoptosis (MDA-MB-231 cells [4]) | inhibition of migration (wound-healing) (MDA-MB-231 cell line) | IC50 (MDA-MB-157 cells [5]) | IC50 (MDA-MB-157 cells [6]) |
| --- | --- | --- | --- | --- | --- | --- | --- | --- | --- | --- | --- | --- | --- | --- | --- | --- | --- | --- |
| CC(=O)OC[C@H]1O[C@@H]([S-])[C@H](OC(C)=O)[C@@H](OC(C)=O)[C@@H]1OC(C)=O.CCP(CC)CC.[Au+] [Auranofin] | 100% | 100% |  |  |  |  |  |  |  |  |  |  |  |  |  |  |  |  |
| N.N.O=C([O-])C1(C(=O)[O-])CCC1.[Pt+2] [Carboplatin] |  |  | ca. 60% |  |  |  |  |  |  |  |  |  |  |  |  |  |  |  |
| N.N.[Cl-].[Cl-].[OH-].[OH-].[Pt+4] [oxo-cisplatin, [Pt(NH3)2Cl2(OH)2]] |  | 66% |  | 33.1 ± 2.9 µM | 53.5 ± 4 µM | 69.9 ± 4.9 µM | 38.6 ± 4.4 µM | 52.02 ± 0.08 µM | 67.8 µM | did not change | 2700 ± 400 nM |  |  |  |  |  |  |  |
| O=C1[O][Pt]2([NH][C@@H]3CCCC[C@H]3[NH]2)[O]C1=O [oxaliplatin] |  | 29.7% |  | 8.21 ± 0.07 µM | 29.8 ± 1.3 µM | > 100 µM | 42.6 ± 3.6 µM | 10.1 ± 0.89 µM | 15.8 µM | displayed bands for expected DNA-drug interactions | 1820 ± 20 nM | 30% | 8% | 14% | 30% | 20% | 26.6 ± 1.7 µM |  |
| N.N.[Cl][Pt][Cl] [cisplatin] |  | 26.4% |  | 3.21 ± 0.88 µM | 6.21 ± 0.08 µM | 2.86 ± 0.36 µM | 3.84 ± 0.39 µM | 7.46 ± 0.62 µM |  | displayed bands for expected DNA-drug interactions | 1400 ± 310 nM |  |  |  |  |  |  | 21.6 µM |
